Activity calls are given as the source filed them. The calls are words filed in the database; no cut-off is given here.
Key:
Beta-secretase 1 [1] = target: T1, Beta-secretase 1 (Homo sapiens, UniProt P56817); experiment: Inhibition of human recombinant BACE1 at 0.2 uM by FRET assay
Beta-secretase 1 [2] = target: T1, Beta-secretase 1; experiment: Inhibition of human recombinant BACE1 at 2 uM by FRET assay
Beta-secretase 1 [3] = target: T1, Beta-secretase 1
Description: (§1) Inhibition of human recombinant BACE1 by FRET assay

Beta-secretase 1 [4] = target: T1, Beta-secretase 1; remark: listed apart in the source
Description: as §1

T1 sequence (P56817 whole entry): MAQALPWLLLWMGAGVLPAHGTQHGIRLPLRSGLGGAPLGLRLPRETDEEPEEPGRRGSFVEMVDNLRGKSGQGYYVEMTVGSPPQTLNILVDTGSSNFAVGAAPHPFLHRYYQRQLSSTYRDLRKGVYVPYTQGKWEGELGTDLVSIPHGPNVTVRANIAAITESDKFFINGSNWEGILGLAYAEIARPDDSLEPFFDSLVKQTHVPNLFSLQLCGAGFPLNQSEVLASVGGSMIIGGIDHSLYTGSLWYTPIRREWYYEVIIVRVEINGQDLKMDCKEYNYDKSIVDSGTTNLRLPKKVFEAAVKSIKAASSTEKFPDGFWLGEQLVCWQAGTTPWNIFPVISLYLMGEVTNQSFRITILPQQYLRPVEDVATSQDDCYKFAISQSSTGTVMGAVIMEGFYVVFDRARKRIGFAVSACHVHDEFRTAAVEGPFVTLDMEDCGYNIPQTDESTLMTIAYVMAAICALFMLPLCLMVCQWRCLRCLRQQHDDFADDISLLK

Row | inhibition (Beta-secretase 1 [2]) [%] | SMILES | also measured
1 | 83 | O=C(N[C@@H](Cc1ccccc1)[C@H](O)C(=O)Nc1cccc(-c2nn[nH]n2)c1)c1cc(=O)cc(C(=O)N2COC[C@@H]2c2ccccc2)[nH]1 | inhibition (Beta-secretase 1 [1]): 36%
2 | 84 | CC(C)(NC(=O)c1cc(OS(C)(=O)=O)cc(C(=O)N[C@@H](Cc2ccccc2)[C@H](O)C(=O)Nc2cccc(-c3nn[nH]n3)c2)n1)c1ccccc1 | –
3 | 69 | CC(C)(NC(=O)c1cccc(C(=O)N[C@@H](Cc2ccccc2)[C@H](O)C(=O)Nc2cccc(-c3nn[nH]n3)c2)n1)c1ccccc1 | –
4 | 70 | C[C@@H](NC(=O)c1cc(=O)cc(C(=O)N[C@@H](Cc2ccccc2)[C@H](O)C(=O)Nc2cccc(-c3nn[nH]n3)c2)o1)c1ccccc1 | –
5 | 96 | O=C(N[C@@H](Cc1ccccc1)[C@H](O)C(=O)Nc1cccc(-c2nn[nH]n2)c1)c1cc(=O)cc(C(=O)N2COC[C@@H]2c2ccccc2)o1 | inhibition (Beta-secretase 1 [1]): 78%; IC50 (Beta-secretase 1 [3]): 50 nM
6 | 66 | C[C@@H](NC(=O)c1cccc(C(=O)N[C@@H](Cc2ccccc2)[C@H](O)C(=O)Nc2cccc(-c3nn[nH]n3)c2)n1)c1ccccc1 | –
7 | 93 | O=C(N[C@@H](Cc1ccccc1)[C@H](O)C(=O)Nc1cccc(-c2nn[nH]n2)c1)c1cccc(C(=O)N2COC[C@@H]2c2ccccc2)n1 | inhibition (Beta-secretase 1 [1]): 63%
8 | – | CCCN(CCC)C(=O)c1cccc(C(=O)N[C@@H](Cc2ccccc2)[C@@H](O)C(=O)Nc2cccc(C(=O)O)c2)n1 | Activity (Beta-secretase 1 [4]): inactive
9 | 81 | CC(C)(NC(=O)c1cc(=O)cc(C(=O)N[C@@H](Cc2ccccc2)[C@H](O)C(=O)Nc2cccc(-c3nn[nH]n3)c2)o1)c1ccccc1 | –
10 | – | CS(=O)(=O)Oc1cc(C(=O)N[C@@H](Cc2ccccc2)[C@H](O)C(=O)Nc2cccc(-c3nnn[nH]3)c2)nc(C(=O)N2COC[C@@H]2c2ccccc2)c1 | IC50 (Beta-secretase 1 [3]): 96 nM
11 | 65 | CC(C)(NC(=O)c1cc(=O)cc(C(=O)N[C@@H](Cc2ccccc2)[C@H](O)C(=O)Nc2cccc(-c3nn[nH]n3)c2)[nH]1)c1ccccc1 | –
12 | – | O=C(N[C@@H](Cc1ccccc1)[C@H](O)C(=O)Nc1cccc(-c2nnn[nH]2)c1)c1cc(O)cc(C(=O)N2COC[C@@H]2c2ccccc2)n1 | IC50 (Beta-secretase 1 [3]): 360 nM
13 | 51 | C[C@@H](NC(=O)c1cc(=O)cc(C(=O)N[C@@H](Cc2ccccc2)[C@H](O)C(=O)Nc2cccc(-c3nn[nH]n3)c2)[nH]1)c1ccccc1 | –
14 | 96 | CS(=O)(=O)Oc1cc(C(=O)N[C@@H](Cc2ccccc2)[C@H](O)C(=O)Nc2cccc(-c3nn[nH]n3)c2)nc(C(=O)N2COC[C@@H]2c2ccccc2)c1 | inhibition (Beta-secretase 1 [1]): 73%
15 | – | O=C(N[C@@H](Cc1ccccc1)[C@H](O)C(=O)Nc1cccc(-c2nnn[nH]2)c1)c1cccc(C(=O)N2COC[C@@H]2c2ccccc2)n1 | IC50 (Beta-secretase 1 [3]): 140 nM

Reference: ChEMBL document CHEMBL1141518, “Novel non-peptidic and small-sized BACE1 inhibitors” (Bioorg Med Chem Lett, 2008)
